Source: patent US10525041B2, “Fluoroalkyl-substituted aryltriazole derivatives and uses thereof” (BAYER PHARMA AKTIENGESELLSCHAFT, priority 2016, dated 2020)

How the values were obtained:
human V1a receptor = molecular target: T1, human V1a receptor (Homo sapiens, UniProt P37288); assay: Cellular in vitro assay for vasopressin receptor activity, V1a cell line (aequorin luminescence); format: cell-based; details: for IC50: CHO cell line transfected with human V1a receptor, agonist [Arg8]-vasopressin at EC50 concentration, read-out: IC50hV1a; for ratio IC50 hV2/hV1a: ratio of the IC50 on human V2 to the IC50 on human V1a
T1 construct: expressed in transfected cells; host or cells: CHO K1 (ATCC), also stably transfected with a modified aequorin
T1 sequence (P37288 whole entry): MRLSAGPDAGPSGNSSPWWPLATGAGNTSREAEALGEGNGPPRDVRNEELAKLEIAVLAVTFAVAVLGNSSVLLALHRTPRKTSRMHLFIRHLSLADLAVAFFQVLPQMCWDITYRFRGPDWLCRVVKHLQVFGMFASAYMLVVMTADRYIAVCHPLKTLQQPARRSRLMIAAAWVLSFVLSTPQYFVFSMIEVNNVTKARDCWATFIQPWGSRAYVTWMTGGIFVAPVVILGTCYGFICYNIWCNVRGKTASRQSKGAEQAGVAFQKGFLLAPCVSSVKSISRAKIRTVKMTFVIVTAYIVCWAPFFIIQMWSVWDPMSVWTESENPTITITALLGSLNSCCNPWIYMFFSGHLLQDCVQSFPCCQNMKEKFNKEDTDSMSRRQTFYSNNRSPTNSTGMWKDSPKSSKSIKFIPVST
Summary of the method: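 CHO K1 cells stably expressing human V1a receptor with aequorin photoprotein, loaded overnight with coelenterazine. Compounds preincubated 10 min at various concentrations, then challenged with [Arg^8]-vasopressin at EC50 concentration. Calcium-driven luminescence read immediately; IC50 values derived.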

human V2 receptor = molecular target: T2, human V2 receptor (Homo sapiens, UniProt P30518); assay: Cellular in vitro assay for vasopressin receptor activity, V2 cell line (CRE-luciferase); format: cell-based; details: CHO cell line transfected with human V2 receptor; agonist [Arg8]-vasopressin at EC50 concentration, 3 hours; read-out: IC50hV2
T2 construct: expressed in transfected cells; host or cells: CHO K1 (ATCC) line expressing firefly luciferase under a CRE-responsive promoter
T2 sequence (P30518 whole entry): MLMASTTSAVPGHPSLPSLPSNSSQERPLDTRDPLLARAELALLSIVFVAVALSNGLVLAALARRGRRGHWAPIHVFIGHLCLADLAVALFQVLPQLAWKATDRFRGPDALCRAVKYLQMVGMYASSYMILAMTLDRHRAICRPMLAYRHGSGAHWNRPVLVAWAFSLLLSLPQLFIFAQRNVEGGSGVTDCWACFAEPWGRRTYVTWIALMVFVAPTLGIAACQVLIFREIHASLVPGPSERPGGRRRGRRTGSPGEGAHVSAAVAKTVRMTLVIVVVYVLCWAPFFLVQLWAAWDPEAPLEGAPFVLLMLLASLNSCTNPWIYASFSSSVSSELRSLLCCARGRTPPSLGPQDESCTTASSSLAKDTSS

Q: Which results are given for Cc1ccccc1-n1nc(Cn2nc(-c3ccc(Cl)cc3)n(C[C@H](O)C(F)(F)F)c2=O)nc1C(C)F (single isomer, unassigned) [Example 36]?
A: IC50 (human V1a receptor): 0.65 nM; ratio IC50 hV2/hV1a (human V1a receptor): 1.5; IC50 (human V2 receptor): 0.98 nM

Q: With CC(F)c1nc(Cn2nc(-c3ccc(Cl)cc3)n(C[C@H](O)C(F)(F)F)c2=O)nn1-c1ccccc1C#N (single isomer, unassigned) [Example 39] as the compound, how does the IC50 (human V1a receptor) read?
A: The IC50 was 22.2 nM.

Q: And the “ratio IC50 hV2/hV1a” value (human V1a receptor)?
A: The value was 11.7.

Q: What about the IC50 (human V2 receptor) of the same compound?
A: Its IC50 is 261 nM.

Q: What does the source list for CC(F)c1nc(Cn2nc(-c3ccc(Cl)cc3)n(C[C@H](O)C(F)(F)F)c2=O)nn1-c1ccccc1C#N (single isomer, unassigned) [Example 40]?
A: IC50 (human V1a receptor): 28.5 nM; ratio IC50 hV2/hV1a (human V1a receptor): 14.7; IC50 (human V2 receptor): 420 nM

Q: Which IC50 (human V1a receptor) does the source give for CC(F)c1nc(Cn2nc(-c3ccc(Cl)cc3)n(C[C@H](O)C(F)(F)F)c2=O)nn1-c1cnccc1C(F)(F)F (stereo partly drawn) [Example 7, 5-(4-Chlorophenyl)-2-({5-[1-fluoroethyl]-1-[4-(trifluoromethyl)pyridin-3-yl]-1H-1,2,4-triazol-3-yl}methyl)-4-[(2S)-3,3,3-trifluoro-2-hydroxypropyl]-2,4-dihydro-3H-1,2,4-triazol-3-one] here?
A: The IC50 was 1.13 nM.

Q: And the “ratio IC50 hV2/hV1a” value (human V1a receptor)?
A: Its value is 11.1.

Q: What about the IC50 (human V2 receptor) of the same compound?
A: Its IC50 is 12.5 nM.

Q: What does the source list for O=c1n(Cc2nc(C(F)F)n(-c3cccc(Cl)c3)n2)nc(-c2ccc(Cl)cc2)n1C[C@H](O)C(F)(F)F [Example 50, 5-(4-Chlorophenyl)-2-{[1-(3-chlorophenyl)-5-(difluoromethyl)-1H-1,2,4-triazol-3-yl]methyl}-4-[(2S)-3,3,3-trifluoro-2-hydroxypropyl]-2,4-dihydro-3H-1,2,4-triazol-3-one]?
A: IC50 (human V1a receptor): 36 nM; ratio IC50 hV2/hV1a (human V1a receptor): 0.1; IC50 (human V2 receptor): 2.59 nM

Q: With O=c1n(Cc2nc(C(F)F)n(-c3ccccc3Cl)n2)nc(-c2ccc(Cl)cc2)n1C[C@H](O)C(F)(F)F [Example 51, 5-(4-Chlorophenyl)-2-{[1-(2-chlorophenyl)-5-(difluoromethyl)-1H-1,2,4-triazol-3-yl]methyl}-4-[(2S)-3,3,3-trifluoro-2-hydroxypropyl]-2,4-dihydro-3H-1,2,4-triazol-3-one] as the compound, how does the IC50 (human V1a receptor) read?
A: The IC50 was 1.47 nM.

Q: And the “ratio IC50 hV2/hV1a” value (human V1a receptor)?
A: Its value is 1.5.

Q: And the IC50 (human V2 receptor)?
A: The IC50 was 2.2 nM.

Q: With O=c1n(Cc2nc(C(F)F)n(-c3cccc(F)c3)n2)nc(-c2ccc(Cl)cc2)n1C[C@H](O)C(F)(F)F [Example 52, 5-(4-Chlorophenyl)-2-{[5-(difluoromethyl)-1-(3-fluorophenyl)-1H-1,2,4-triazol-3-yl]methyl}-4-[(2S)-3,3,3-trifluoro-2-hydroxypropyl]-2,4-dihydro-3H-1,2,4-triazol-3-one] as the compound, how does the IC50 (human V1a receptor) read?
A: Its IC50 is 10.8 nM.

Q: And the “ratio IC50 hV2/hV1a” value (human V1a receptor)?
A: Its value is 0.5.

Q: And the IC50 (human V2 receptor)?
A: Its IC50 is 5.92 nM.

Q: For CC(F)(F)c1nc(Cn2nc(-c3ccc(Cl)cc3)n(C[C@H](O)C(F)(F)F)c2=O)nn1-c1ccccc1Cl [Example 53, 5-(4-Chlorophenyl)-2-{[1-(2-chlorophenyl)-5-(1,1-difluoroethyl)-1H-1,2,4-triazol-3-yl]methyl}-4-[(2S)-3,3,3-trifluoro-2-hydroxypropyl]-2,4-dihydro-3H-1,2,4-triazol-3-one], which IC50 (human V1a receptor) is on record?
A: Its IC50 is 0.4 nM.

Q: What about the “ratio IC50 hV2/hV1a” value (human V1a receptor) of the same compound?
A: The value was 2.9.

Q: And the IC50 (human V2 receptor)?
A: Its IC50 is 1.16 nM.

Q: Which results are given for CC(F)(F)c1nc(Cn2nc(-c3ccc(Cl)cc3)n(C[C@H](O)C(F)(F)F)c2=O)nn1-c1cnccc1Cl [Example 54, 5-(4-Chlorophenyl)-2-{[1-(4-chloropyridin-3-yl)-5-(1,1-difluoroethyl)-1H-1,2,4-triazol-3-yl]methyl}-4-[(2S)-3,3,3-trifluoro-2-hydroxypropyl]-2,4-dihydro-3H-1,2,4-triazol-3-one]?
A: IC50 (human V1a receptor): 0.93 nM; ratio IC50 hV2/hV1a (human V1a receptor): 12.2; IC50 (human V2 receptor): 11.2 nM

Q: Which results are given for CC(F)(F)c1nc(Cn2nc(-c3ccc(Cl)cc3)n(C[C@H](O)C(F)(F)F)c2=O)nn1-c1cccc(Cl)c1 [Example 55, 5-(4-Chlorophenyl)-2-{[1-(3-chlorophenyl)-5-(1,1-difluoroethyl)-1H-1,2,4-triazol-3-yl]methyl}-4-[(2S)-3,3,3-trifluoro-2-hydroxypropyl]-2,4-dihydro-3H-1,2,4-triazol-3-one]?
A: IC50 (human V1a receptor): 60 nM; ratio IC50 hV2/hV1a (human V1a receptor): 0.1; IC50 (human V2 receptor): 5.23 nM

Q: Which results are given for CC(F)(F)c1nc(Cn2nc(-c3ccc(Cl)cc3)n(C[C@H](O)C(F)(F)F)c2=O)nn1-c1cccc(F)c1 [Example 56, 5-(4-Chlorophenyl)-2-{[5-(1,1-difluoroethyl)-1-(3-fluorophenyl)-1H-1,2,4-triazol-3-yl]methyl}-4-[(2S)-3,3,3-trifluoro-2-hydroxypropyl]-2,4-dihydro-3H-1,2,4-triazol-3-one]?
A: IC50 (human V1a receptor): 15.5 nM; ratio IC50 hV2/hV1a (human V1a receptor): 0.3; IC50 (human V2 receptor): 5.25 nM

Q: For CC(F)(F)c1nc(Cn2nc(-c3ccc(Cl)cc3)n(C[C@H](O)C(F)(F)F)c2=O)nn1-c1cnccc1C(F)(F)F [Example 57, 5-(4-Chlorophenyl)-2-({5-(1,1-difluoroethyl)-1-[4-(trifluoromethyl)pyridin-3-yl]-1H-1,2,4-triazol-3-yl}methyl)-4-[(2S)-3,3,3-trifluoro-2-hydroxypropyl]-2,4-dihydro-3H-1,2,4-triazol-3-one], which IC50 (human V1a receptor) is on record?
A: The IC50 was 2 nM.

Q: And the “ratio IC50 hV2/hV1a” value (human V1a receptor)?
A: Its value is 12.3.

Q: What about the IC50 (human V2 receptor) of the same compound?
A: The IC50 was 24.5 nM.

Q: CC(F)(F)c1nc(Cn2nc(-c3ccc(Cl)cc3)n(C[C@H](O)C(F)(F)F)c2=O)nn1-c1ncccc1Cl [Example 58, 5-(4-Chlorophenyl)-2-{[1-(3-chloropyridin-2-yl)-5-(1,1-difluoroethyl)-1H-1,2,4-triazol-3-yl]methyl}-4-[(2S)-3,3,3-trifluoro-2-hydroxypropyl]-2,4-dihydro-3H-1,2,4-triazol-3-one] was tested. Which IC50 (human V1a receptor) did it give?
A: The IC50 was 1 nM.

Q: What about the “ratio IC50 hV2/hV1a” value (human V1a receptor) of the same compound?
A: Its value is 3.4.

Q: What about the IC50 (human V2 receptor) of the same compound?
A: The IC50 was 3.4 nM.

Q: Which results are given for CC(F)(F)c1nc(Cn2nc(-c3ccc(Cl)cc3)n(C[C@H](O)C(F)(F)F)c2=O)nn1-c1ncccc1C(F)(F)F [Example 59, 5-(4-Chlorophenyl)-2-({5-(1,1-difluoroethyl)-1-[3-(trifluoromethyl)pyridin-2-yl]-1H-1,2,4-triazol-3-yl}methyl)-4-[(2S)-3,3,3-trifluoro-2-hydroxypropyl]-2,4-dihydro-3H-1,2,4-triazol-3-one]?
A: IC50 (human V1a receptor): 4.7 nM; ratio IC50 hV2/hV1a (human V1a receptor): 5.7; IC50 (human V2 receptor): 26.7 nM

Q: For CC(F)(F)c1nc(Cn2nc(-c3ccc(Cl)cc3)n(C[C@H](O)C(F)(F)F)c2=O)nn1-c1ccccc1C(F)(F)F [Example 60, 5-(4-Chlorophenyl)-2-({5-(1,1-difluoroethyl)-1-[2-(trifluoromethyl)phenyl]-1H-1,2,4-triazol-3-yl}methyl)-4-[(2S)-3,3,3-trifluoro-2-hydroxypropyl]-2,4-dihydro-3H-1,2,4-triazol-3-one], which IC50 (human V1a receptor) is on record?
A: Its IC50 is 1.73 nM.

Q: What about the “ratio IC50 hV2/hV1a” value (human V1a receptor) of the same compound?
A: The value was 6.7.

Q: What about the IC50 (human V2 receptor) of the same compound?
A: The IC50 was 11.6 nM.

Q: With CC(F)(F)c1nc(Cn2nc(-c3ccc(Cl)cc3)n(C[C@H](O)C(F)(F)F)c2=O)nn1-c1ccccc1OC(F)(F)F [Example 61, 5-(4-Chlorophenyl)-2-({5-(1,1-difluoroethyl)-1-[2-(trifluoromethoxy)phenyl]-1H-1,2,4-triazol-3-yl}methyl)-4-[(2S)-3,3,3-trifluoro-2-hydroxypropyl]-2,4-dihydro-3H-1,2,4-triazol-3-one] as the compound, how does the IC50 (human V1a receptor) read?
A: Its IC50 is 4.15 nM.

Q: And the “ratio IC50 hV2/hV1a” value (human V1a receptor)?
A: Its value is 10.7.

Q: And the IC50 (human V2 receptor)?
A: The IC50 was 44.5 nM.

Q: What does the source list for CCc1ccccc1-n1nc(Cn2nc(-c3ccc(Cl)cc3)n(C[C@H](O)C(F)(F)F)c2=O)nc1C(C)(F)F [Example 62, 5-(4-Chlorophenyl)-2-{[5-(1,1-difluoroethyl)-1-(2-ethylphenyl)-1H-1,2,4-triazol-3-yl]methyl}-4-[(2S)-3,3,3-trifluoro-2-hydroxypropyl]-2,4-dihydro-3H-1,2,4-triazol-3-one]?
A: IC50 (human V1a receptor): 2.2 nM; ratio IC50 hV2/hV1a (human V1a receptor): 1.0; IC50 (human V2 receptor): 2.25 nM

Q: Which IC50 (human V1a receptor) does the source give for CC(F)(F)c1nc(Cn2nc(-c3ccc(Cl)cc3)n(C[C@H](O)C(F)(F)F)c2=O)nn1-c1ccccc1OC(F)F [Example 63, 5-(4-Chlorophenyl)-2-({5-(1,1-difluoroethyl)-1-[2-(difluoromethoxy)phenyl]-1H-1,2,4-triazol-3-yl}methyl)-4-[(2S)-3,3,3-trifluoro-2-hydroxypropyl]-2,4-dihydro-3H-1,2,4-triazol-3-one] here?
A: The IC50 was 2.1 nM.

Q: And the “ratio IC50 hV2/hV1a” value (human V1a receptor)?
A: Its value is 3.3.

Q: What about the IC50 (human V2 receptor) of the same compound?
A: The IC50 was 6.95 nM.

Q: What does the source list for Cc1ccccc1-n1nc(Cn2nc(-c3ccc(Cl)cc3)n(C[C@H](O)C(F)(F)F)c2=O)nc1C(C)(F)F [Example 64, 5-(4-Chlorophenyl)-2-{[5-(1,1-difluoroethyl)-1-(2-methylphenyl)-1H-1,2,4-triazol-3-yl]methyl}-4-[(2S)-3,3,3-trifluoro-2-hydroxypropyl]-2,4-dihydro-3H-1,2,4-triazol-3-one]?
A: IC50 (human V1a receptor): 1.06 nM; ratio IC50 hV2/hV1a (human V1a receptor): 1.6; IC50 (human V2 receptor): 1.7 nM

Q: How did the IC50 (human V1a receptor) turn out when CC(F)(F)c1nc(Cn2nc(-c3ccc(Cl)cc3)n(C[C@H](O)C(F)(F)F)c2=O)nn1-c1ccccc1[N+](=O)[O-] [Example 65, 5-(4-Chlorophenyl)-2-{[5-(1,1-difluoroethyl)-1-(2-nitrophenyl)-1H-1,2,4-triazol-3-yl]methyl}-4-[(2S)-3,3,3-trifluoro-2-hydroxypropyl]-2,4-dihydro-3H-1,2,4-triazol-3-one] was run?
A: The IC50 was 3.05 nM.

Q: What about the “ratio IC50 hV2/hV1a” value (human V1a receptor) of the same compound?
A: Its value is 3.7.

Q: What about the IC50 (human V2 receptor) of the same compound?
A: The IC50 was 11.4 nM.

Q: For CC(F)(F)c1nc(Cn2nc(-c3ccc(Cl)cc3)n(C[C@H](O)C(F)(F)F)c2=O)nn1-c1ccccc1S(N)(=O)=O [Example 66, 2-[3-({3-(4-Chlorophenyl)-5-oxo-4-[(2S)-3,3,3-trifluoro-2-hydroxypropyl]-4,5-dihydro-1H-1,2,4-triazol-1-yl}methyl)-5-(1,1-difluoroethyl)-1H-1,2,4-triazol-1-yl]benzenesulfonamide], which IC50 (human V1a receptor) is on record?
A: The IC50 was 58 nM.

Q: What about the “ratio IC50 hV2/hV1a” value (human V1a receptor) of the same compound?
A: Its value is 5.9.

Q: And the IC50 (human V2 receptor)?
A: The IC50 was 340 nM.
